Data taken from publication PMC6494879, “Drug resistance emergence in macaques administered cabotegravir long-acting for pre-exposure prophylaxis during acute SHIV infection” (Nature Communications, 2019).
pIC50: −log10 of the molar value. Where two headings read alike, the source gives them in different places.

Tests used:
[1] = for Median CAB: plasma, median of treated macaques
Protocol: (§1) CAB LA (200 mg/mL injectable stock aqueous suspension) was given at a dose of 50 mg kg^−1 under anesthesia by intramuscular injection into the quadriceps. Volumes greater than 1.0 mL were divided into two injection sites.

[2] = time course, day given in the Days column, CAB LA 50 mg/kg i.m. days 11, 39, 67, LLOQ 10 ng ml^-1
Protocol: as §1

HIV-1 = conditions: read-out: 50% inhibitory concentration (IC50); cited from earlier work
in vivo = conditions: Indian, rhesus monkey
Protocol: as §1

[3] = ECLAIR trial; cited from earlier work

**Q.** Which “Plasma CAB concentration” value ([1]; macaque 35451, day 25) does the source give for `C[C@H]1CO[C@@H]2Cn3cc(C(=O)NCc4ccc(F)cc4F)c(=O)c(O)c3C(=O)N12` [CAB, cabotegravir] here?
**A.** 4.47 µg/mL

**Q.** What about the “Plasma CAB concentration” value ([1]; macaque 35451, day 32) of the same compound?
**A.** 1.84 µg/mL

**Q.** And the “Plasma CAB concentration” value ([1]; macaque 35451, day 39)?
**A.** 0.819 µg/mL

**Q.** And the “Plasma CAB concentration” value ([1]; macaque 35451, day 46)?
**A.** 2.55 µg/mL

**Q.** What about the “Plasma CAB concentration” value ([1]; macaque 35451, day 53) of the same compound?
**A.** 4.01 µg/mL

**Q.** And the “Plasma CAB concentration” value ([1]; macaque 35451, day 57)?
**A.** 6.17 µg/mL

**Q.** And the “Plasma CAB concentration” value ([1]; macaque 35451, day 67)?
**A.** 3.19 µg/mL

**Q.** And the “Plasma CAB concentration” value ([1]; macaque 35451, day 74)?
**A.** 4.1 µg/mL

**Q.** And the “Plasma CAB concentration” value ([1]; macaque 35451, day 81)?
**A.** 2.89 µg/mL

**Q.** And the “Plasma CAB concentration” value ([1]; macaque 35451, day 88)?
**A.** 3.28 µg/mL

**Q.** And the “Plasma CAB concentration” value ([1]; macaque 35451, day 95)?
**A.** 2.43 µg/mL

**Q.** And the “Plasma CAB concentration” value ([1]; macaque 35451, day 102)?
**A.** 2.21 µg/mL

**Q.** What about the “Plasma CAB concentration” value ([1]; macaque 35451, day 106) of the same compound?
**A.** 1.25 µg/mL

**Q.** What about the “Plasma CAB concentration” value ([1]; macaque CH54, day 18) of the same compound?
**A.** 5.12 µg/mL

**Q.** What about the “Plasma CAB concentration” value ([1]; macaque CH54, day 25) of the same compound?
**A.** 5.14 µg/mL

**Q.** What about the “Plasma CAB concentration” value ([1]; macaque CH54, day 32) of the same compound?
**A.** 3.53 µg/mL

**Q.** And the “Plasma CAB concentration” value ([1]; macaque CH54, day 39)?
**A.** 1.14 µg/mL

**Q.** What about the “Plasma CAB concentration” value ([1]; macaque CH54, day 46) of the same compound?
**A.** 2.99 µg/mL

**Q.** And the “Plasma CAB concentration” value ([1]; macaque CH54, day 53)?
**A.** 2.32 µg/mL

**Q.** What about the “Plasma CAB concentration” value ([1]; macaque CH54, day 57) of the same compound?
**A.** 3.27 µg/mL

**Q.** What about the “Plasma CAB concentration” value ([1]; macaque CH54, day 67) of the same compound?
**A.** 4.33 µg/mL

**Q.** What about the “Plasma CAB concentration” value ([1]; macaque CH54, day 74) of the same compound?
**A.** 5.39 µg/mL

**Q.** What about the “Plasma CAB concentration” value ([1]; macaque CH54, day 81) of the same compound?
**A.** 5.03 µg/mL

**Q.** What about the “Plasma CAB concentration” value ([1]; macaque CH54, day 88) of the same compound?
**A.** 3.45 µg/mL

**Q.** And the “Plasma CAB concentration” value ([1]; macaque CH54, day 95)?
**A.** 1.97 µg/mL

**Q.** What about the “Plasma CAB concentration” value ([1]; macaque CH54, day 102) of the same compound?
**A.** 1.41 µg/mL

**Q.** And the “Plasma CAB concentration” value ([1]; macaque CH54, day 106)?
**A.** 0.707 µg/mL

**Q.** What about the “Plasma CAB concentration” value ([1]; macaque CJ92, day 18) of the same compound?
**A.** 6.99 µg/mL

**Q.** What about the “Plasma CAB concentration” value ([1]; macaque CJ92, day 25) of the same compound?
**A.** 3.55 µg/mL

**Q.** And the “Plasma CAB concentration” value ([1]; macaque CJ92, day 32)?
**A.** 3.13 µg/mL

**Q.** And the “Plasma CAB concentration” value ([1]; macaque CJ92, day 39)?
**A.** 2.92 µg/mL

**Q.** And the “Plasma CAB concentration” value ([1]; macaque CJ92, day 46)?
**A.** 3.62 µg/mL

**Q.** What about the “Plasma CAB concentration” value ([1]; macaque CJ92, day 53) of the same compound?
**A.** 2.88 µg/mL

**Q.** What about the “Plasma CAB concentration” value ([1]; macaque CJ92, day 57) of the same compound?
**A.** 3.47 µg/mL

**Q.** And the “Plasma CAB concentration” value ([1]; macaque CJ92, day 67)?
**A.** 3.7 µg/mL

**Q.** And the “Plasma CAB concentration” value ([1]; macaque CJ92, day 74)?
**A.** 5.46 µg/mL

**Q.** What about the “Plasma CAB concentration” value ([1]; macaque CJ92, day 81) of the same compound?
**A.** 6.56 µg/mL

**Q.** And the “Plasma CAB concentration” value ([1]; macaque CJ92, day 88)?
**A.** 4.022 µg/mL

**Q.** What about the “Plasma CAB concentration” value ([1]; macaque CJ92, day 95) of the same compound?
**A.** 1.93 µg/mL

**Q.** And the “Plasma CAB concentration” value ([1]; macaque CJ92, day 102)?
**A.** 1.54 µg/mL

**Q.** What about the “Plasma CAB concentration” value ([1]; macaque CJ92, day 106) of the same compound?
**A.** 0.994 µg/mL

**Q.** What about the “Median CAB” value ([1]; day 18) of the same compound?
**A.** 6.01 µg/mL

**Q.** And the “Median CAB” value ([1]; day 25)?
**A.** 4.805 µg/mL

**Q.** What about the “Median CAB” value ([1]; day 32) of the same compound?
**A.** 2.96 µg/mL

**Q.** And the “Median CAB” value ([1]; day 39)?
**A.** 1.235 µg/mL

**Q.** And the “Median CAB” value ([1]; day 46)?
**A.** 3.535 µg/mL

**Q.** And the “Median CAB” value ([1]; day 53)?
**A.** 4.535 µg/mL

**Q.** What about the “Median CAB” value ([1]; day 57) of the same compound?
**A.** 4.02 µg/mL

**Q.** And the “Median CAB” value ([1]; day 67)?
**A.** 2.35 µg/mL

**Q.** And the “Median CAB” value ([1]; day 74)?
**A.** 4.98 µg/mL

**Q.** What about the “Median CAB” value ([1]; day 81) of the same compound?
**A.** 4.6 µg/mL

**Q.** And the “Median CAB” value ([1]; day 88)?
**A.** 3.16 µg/mL

**Q.** And the “Median CAB” value ([1]; day 95)?
**A.** 1.715 µg/mL

**Q.** What about the “Median CAB” value ([1]; day 102) of the same compound?
**A.** 1.113 µg/mL

**Q.** What about the “Median CAB” value ([1]; day 106) of the same compound?
**A.** 0.659 µg/mL

**Q.** What about the “CAB in plasma at the last measurement on day 204” value ([1]; remaining two animals) of the same compound?
**A.** detectable

**Q.** And the “Vaginal fluid CAB concentration in treated macaques” value ([2]; macaque 10D181)?
**A.** 0.009 µg/mL

**Q.** What about the “Vaginal fluid CAB concentration in treated macaques” value ([2]; macaque 33996) of the same compound?
**A.** 0.009 µg/mL

**Q.** And the pIC50 (HIV-1)?
**A.** ~9.66

**Q.** And the half-life (in vivo)?
**A.** 10.7 days

**Q.** What about the “subjects with CAB still detectable 52 weeks after the last injection” value [3] of the same compound?
**A.** 14%
